This is an account of results in patent publication US12503453B2, “USP7 inhibition” (Dana-Farber Cancer Institute, Inc., priority 2018, dated 2025).

The subject of test [1] is Ewing sarcoma cell lines, TP53 WT and mutant. To be noted: recently reported study; cited from earlier work.
Test [2] has the same test system. Briefly: Cell proliferation (CellTiter-Glo), panel of Ewing sarcoma cell lines. The class given is cell-based. The conditions noted are these: same set of cell lines. How it is done:
Cells were plated in 384-well culture-treated plates and allowed to settle overnight. After drug treatment and appropriate incubation time, cell viability was assessed using the CellTiter-Glo Luminescent Cell Viability Assay (Promega). Luminescence was read on a Fluostar Omega Reader (BMG Labtech).

The target of a further test is full length USP7 (Homo sapiens (Human), UniProt Q93009). Briefly: Ub-AMC kinetic assay (ki and kinact). The class given is biochemical. To be noted: pre-incubation 5 min-3 hours; read-out: inhibition constant (Ki). As for the experimental part: Full length USP7 was tested for its activity in Ubiquitin-AMC assay in presence or absence of inhibitors. USP7 (5 nM) was pre-incubated for 6 hours at room temperature with different concentrations of inhibitors or DMSO as a control in 50 mM HEPES pH 7.5, 0.5 mM EDTA, 11 μM ovalbumin, and 5 mM DTT. Ubiquitin-AMC (Boston Biochem) was then added to a final concentration of 500 nM. The initial rate of the reaction was measured by collecting fluorescence data at one minute intervals over 30-minute period using a Clariostar fluorescence plate reader at excitation and emission wavelength of 345 and 445 nm respectively. The calculated initial rate values were plotted against inhibitor concentrations to determine IC50s. All the experimental data were plotted using Prism GraphPad. All assays for each compound were performed at least twice for each compound.
Chain of full length USP7 (Q93009 whole entry): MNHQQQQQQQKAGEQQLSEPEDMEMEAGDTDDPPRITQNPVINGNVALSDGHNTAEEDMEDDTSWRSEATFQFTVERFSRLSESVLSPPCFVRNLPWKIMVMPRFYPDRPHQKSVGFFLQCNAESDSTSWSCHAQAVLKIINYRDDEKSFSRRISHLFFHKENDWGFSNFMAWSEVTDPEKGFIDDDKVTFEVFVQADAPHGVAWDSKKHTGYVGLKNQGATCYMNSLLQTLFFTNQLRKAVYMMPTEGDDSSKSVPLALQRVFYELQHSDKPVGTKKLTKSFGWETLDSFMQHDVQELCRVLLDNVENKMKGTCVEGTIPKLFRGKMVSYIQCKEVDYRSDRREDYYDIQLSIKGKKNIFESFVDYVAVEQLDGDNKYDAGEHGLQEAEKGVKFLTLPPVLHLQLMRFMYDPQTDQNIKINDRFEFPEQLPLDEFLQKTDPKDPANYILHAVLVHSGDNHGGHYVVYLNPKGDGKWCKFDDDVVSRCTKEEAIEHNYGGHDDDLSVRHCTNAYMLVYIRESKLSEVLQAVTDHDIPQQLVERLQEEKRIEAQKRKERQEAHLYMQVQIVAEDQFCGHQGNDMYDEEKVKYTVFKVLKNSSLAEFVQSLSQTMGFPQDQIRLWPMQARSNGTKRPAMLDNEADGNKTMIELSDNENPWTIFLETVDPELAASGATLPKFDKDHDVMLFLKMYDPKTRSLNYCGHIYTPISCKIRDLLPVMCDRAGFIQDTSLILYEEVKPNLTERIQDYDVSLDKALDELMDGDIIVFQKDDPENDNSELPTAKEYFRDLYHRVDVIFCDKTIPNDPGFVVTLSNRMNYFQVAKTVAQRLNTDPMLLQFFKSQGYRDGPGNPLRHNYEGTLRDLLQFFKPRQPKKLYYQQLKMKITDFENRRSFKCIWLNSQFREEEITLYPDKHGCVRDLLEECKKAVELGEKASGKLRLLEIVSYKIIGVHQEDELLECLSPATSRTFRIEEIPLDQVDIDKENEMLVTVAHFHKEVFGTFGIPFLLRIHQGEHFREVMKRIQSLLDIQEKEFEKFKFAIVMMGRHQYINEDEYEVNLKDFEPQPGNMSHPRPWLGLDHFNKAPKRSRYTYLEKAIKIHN
To determine kobs, the time course curves were fit to the equation y=ymax(1−exp(−kobs·x)). The kobs values were then plotted against the inhibitor concentrations and fit to the equation y=kinact/(1+(ki/x)) to obtain the values for ki and kinact.

Test [3] deals with MDM2-p53 signaling axis in MCF7 cells. Briefly: Whole cell lysate Western blots of MCF7 cells (MDM2-p53 signaling axis). The class given is cell-based. To be noted: wild-type TP53.
Test [4] concerns MCF7 cells. Briefly: Transcriptome profiling, 3' Digital Gene Expression RNA-seq. It counts as cell-based. To be noted: 24 hours, low or high doses. The text has this: Overall, transcripts were detected for 7000-10,000 genes (7276 genes detected across all conditions).
The same report had also identified a set of dimerization partner, Retinoblastoma-like, E2F and multi-vulval class B (DREAM) complex target genes by combining p53 repression data (generated in part with Nutlin-3A-treated MCF7 cells) with cell cycle expression and DREAM component binding.

The test system of test [5] is MCF7 cells. Briefly: Cell cycle analysis by propidium iodide staining. The class given is cell-based. To be noted: 1 μM, 24 hours. How it is done:
For propidium iodide (PI) staining, treated cells (˜1 million per condition) were washed with cold PBS, then fixed in 80% ethanol overnight at −20° C. After fixing, cells were pelleted, washed with PBS, and reconstituted in 500 μL FxCycle PI/RNAse A staining solution (Thermo Fisher). Cells were stored overnight at 4° C. and analyzed using a BD Fortessa flow cytometer.

On to `CC(=O)c1cc([N+](=O)[O-])c(Sc2cccc(Cl)c2Cl)s1` [P5091], for which, in test [1], the “activity against WT and TP53-KO Ewing Sarcoma cells” value is “equipotent activity against WT and TP53-KO Ewing Sarcoma cells”. Besides, in test [2], the “specificity for TP53-WT expressing cells” value is listed as “little to no specificity for TP53-WT expressing cells”.

In the case of `CN1CCN(CCC(=O)Nc2ccc3c(=O)n(CC4(O)CCN(C(=O)CCCCNC(=O)c5ccc6c(Cl)c7c(nc6c5)CCCC7)CC4)cnc3c2)CC1` [compound 1, 9-chloro-N-(5-(4-hydroxy-4-((7-(3-(4-methylpiperazin-1-yl)propanamido)-4-oxoquinazolin-3(4H)-yl)methyl)piperidin-1-yl)-5-oxopentyl)-5,6,7,8-tetrahydroacridine-3-carboxamide], at full length USP7, the Ki is 2.8 ± 1.8 nM.

Take `CN1CCN(CCC(=O)Nc2ccc3c(=O)n(CC4(O)CCN(C(=O)[C@H](CCCNC(=O)c5ccc6c(Cl)c7c(nc6c5)CCCC7)Cc5ccccc5)CC4)cnc3c2)CC1` [compound 7, (R)-N-(4-benzyl-5-(4-hydroxy-4-((7-(3-(4-methylpiperazin-1-yl)propanamido)-4-oxoquinazolin-3(4H)-yl)methyl)piperidin-1-yl)-5-oxopentyl)-9-chloro-5,6,7,8-tetrahydroacridine-3-carboxamide]: the MDM2 protein level entry in test [3] is “did not exert any of the same effects”. The transcriptional profile result in the test on MCF7 cells [4] was “highly correlated with the vehicle (DMSO)-treated control cells”. Also, the cell cycle effect result with MCF7 cells [5] is “did not exert any of the same effects”.
